The values below come from patent US20220213052A1, “INHIBITORS OF RNA-BINDING PROTEINS, COMPOSITIONS THEREOF, AND THERAPEUTIC USES THEROF” (The University of North Carolina at Chapel Hill, priority 2019, published 2022).

Like-named read-outs stand apart in the source and are kept apart here.

Series [1] addresses T1, full-length human HuR protein (Homo sapiens, UniProt Q15717).
T1 construct: full-length human HuR protein was produced by the KU COBRE-PSF Protein Purification Group; made in house
As to the kind of experiment: FP-based binding of full length HuR to fluorescein-labeled target RNAs. Conditions: 16 nt RNA oligo, 3′-fluorescein. The protocol: FIG. 3 provides the results of a fluorescence polarization (FP)-based binding assay, illustrating that full length HuR binds to FITC-Bcl-2, Msi1, and XIAP RNA but not to scrambled oligo-FITC. The concentration of FITC-RNA used in the assay is 2 nM.
(§1) A fluorescence polarization (FP)-based binding assay was utilized to assess the inhibition of HuR protein interaction with the ARE site of Msi1 mRNA (“HuR-Msi1^ARE”) by compounds of interest. Briefly, full-length human HuR protein was produced by the KU COBRE-PSF Protein Purification Group and Bcl2, Msi1 and XIAP mRNA sequences (16 nt) were designed based on literature precedent^23,24,31,32. Fluorescein labeled RNAs were purchased from Dharmacon with the following sequences: Msi1 RNA: 5′-[…]-3′-fluorescein; Bcl-2 RNA: 5′-[…]-3′-fluorescein; XIAP RNA: 5′-[…] UGUC-3′-fluorescein, and a 16-nt degenerative RNA with 3′-fluorescein label was used as a negative control.

In series [2] the target is T1, full-length human HuR protein. Kind of series: FP assay of HuR-Msi1 ARE binding inhibition. Conditions: HuR-Msi1 ARE interaction; read-out: HuR Ki via FP assay.
Text: as §1
(§2) With the FP assay of HuR-Msi1ARE binding, the inhibition of the HuR-Msi1ARE interaction by various compounds of the present technology was assessed. Similar FP assays for Musashi 2 (Msi2) and for RNA-binding protein Lin-28 homolog B (LIN28B) were also performed on various compounds of the present technology. The results of such assays for HuR are provided in Table 1 alongside the compound structures as well as ID numbers for ease of reference; the results of such assays for Msi1, Msi2, and LIN28B are provided in Table 2.

Series [3] has as its system pancreatic cancer cell line MIAPaCa-2. Kind of series: Cytotoxicity assay (WST-8), MIAPaCa-2. Type of series: cell-based. Conditions: Homo sapiens, MIA PaCa-2, 96 h incubation. The protocol:
(§3) The cytotoxicity of various compounds of the present technology in several cancer cell lines (pancreatic cancer cell line MIAPaCa-2, triple-negative breast cancer cell line MDA-MB-231, and colon cancer cell lines HCT116, HCT116 β/W, and RKO) was assessed by a cytotoxicity assay. Cells were seeded in 96-well culture plates (3,000-5,000 cells/well) and treated with titrated compounds in triplicate. After 96 h incubation, cell growth medium was removed and proliferation reagent WST-8 (Sigma) was added to each well and incubated at 37° C. for 1-3 h. Absorbance was then measured with a plate reader at 450 nm with correction at 650 nm. The results were expressed as the percentage of absorbance of treated wells versus that of vehicle control. IC50, the drug concentration causing 50% growth inhibition, was calculated via sigmoid curve fitting using GraphPad Prism 5.0. The results for those compounds tested against MIAPaCa-2 and MDA-MB-231 are provided in Table 1; the results for those compounds tested against colon cancer cell lines HCT116, HCT116 β/W, and RKO are provided in Table 3.
(In general: Formazan colour is commonly taken as a measure of viable cells.)

The subject of series [4] is triple-negative breast cancer cell line MDA-MB-231. Kind of series: Cytotoxicity assay (WST-8), MDA-MB-231. Type of series: cell-based. Conditions: Homo sapiens, 96 h incubation. How it is done: as §3
In the next series the target is Msi1 (Homo sapiens, UniProt O43347). Kind of series: Msi1 FP assay. The class given is binding. The protocol: as §2
The target in the next series is Musashi 2 (Msi2) (Homo sapiens, UniProt Q96DH6). Kind of series: Msi2 FP assay. Type of series: binding. The protocol: as §2
The target of series [5] is T2, RNA-binding protein Lin-28 homolog B (LIN28B) (Homo sapiens, UniProt Q6ZN17).
T2 sequence (Q6ZN17 1-250): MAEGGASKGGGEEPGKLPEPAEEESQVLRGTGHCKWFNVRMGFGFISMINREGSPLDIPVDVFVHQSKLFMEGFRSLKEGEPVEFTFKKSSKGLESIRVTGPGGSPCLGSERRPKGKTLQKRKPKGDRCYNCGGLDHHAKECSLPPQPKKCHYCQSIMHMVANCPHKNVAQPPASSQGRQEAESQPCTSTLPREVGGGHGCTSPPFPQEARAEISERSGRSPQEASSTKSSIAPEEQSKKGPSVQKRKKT
Kind of series: LIN28B FP assay. How it is done: as §2

Series [6] relates to colon cancer cell line HCT116. As to the kind of experiment: Cytotoxicity assay (WST-8), HCT116. The class given is cell-based. To be noted: Homo sapiens, HCT-116, 96 h incubation. The protocol:
as §3

For series [7], the system named is colon cancer cell line HCT116 β/W. As to the kind of experiment: Cytotoxicity assay (WST-8), HCT116 β/W. The class given is cell-based. To be noted: Homo sapiens, HCT-116, 96 h incubation. How it is done:
as §3

The test system of series [8] is colon cancer cell line RKO. Kind of series: Cytotoxicity assay (WST-8), RKO. Conditions: 96 h incubation. Type of series: cell-based. The protocol: as §3
For series [9], the system named is colon cancer cell line SW480. As to the kind of experiment: Cytotoxicity assay (WST-8), SW480. The class given is cell-based. To be noted: Homo sapiens, 96 h incubation.
[10] abbreviates: cell marked (RRM1), read-out: Msi2 (Ki) (RRM1).
Setting [11] is: cell without (RRM1) mark, read-out: Msi2 (Ki).

Msi1, sequence (O43347 whole entry, species assumed): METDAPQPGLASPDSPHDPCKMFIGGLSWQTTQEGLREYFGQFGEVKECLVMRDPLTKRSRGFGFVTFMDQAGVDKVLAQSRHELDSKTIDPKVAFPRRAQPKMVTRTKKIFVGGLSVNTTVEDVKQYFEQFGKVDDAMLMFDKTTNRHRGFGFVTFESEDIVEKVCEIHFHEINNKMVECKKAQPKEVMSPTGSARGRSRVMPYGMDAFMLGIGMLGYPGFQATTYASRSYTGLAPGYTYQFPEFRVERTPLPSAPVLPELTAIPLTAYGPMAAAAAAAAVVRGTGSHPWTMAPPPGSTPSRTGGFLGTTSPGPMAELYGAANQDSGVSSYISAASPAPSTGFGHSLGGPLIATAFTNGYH
T1 sequence (Q15717 whole entry): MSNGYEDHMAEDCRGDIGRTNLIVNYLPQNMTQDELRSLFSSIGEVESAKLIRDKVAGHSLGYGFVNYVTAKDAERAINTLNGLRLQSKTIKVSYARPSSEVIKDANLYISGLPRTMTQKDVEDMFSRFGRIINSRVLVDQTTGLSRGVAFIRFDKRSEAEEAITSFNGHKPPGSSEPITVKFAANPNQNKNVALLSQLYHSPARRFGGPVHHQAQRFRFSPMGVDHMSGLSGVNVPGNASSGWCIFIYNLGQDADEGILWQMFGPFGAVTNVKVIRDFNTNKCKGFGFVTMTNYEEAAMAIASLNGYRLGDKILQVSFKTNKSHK
Musashi 2 (Msi2), sequence (Q96DH6 whole entry, species assumed): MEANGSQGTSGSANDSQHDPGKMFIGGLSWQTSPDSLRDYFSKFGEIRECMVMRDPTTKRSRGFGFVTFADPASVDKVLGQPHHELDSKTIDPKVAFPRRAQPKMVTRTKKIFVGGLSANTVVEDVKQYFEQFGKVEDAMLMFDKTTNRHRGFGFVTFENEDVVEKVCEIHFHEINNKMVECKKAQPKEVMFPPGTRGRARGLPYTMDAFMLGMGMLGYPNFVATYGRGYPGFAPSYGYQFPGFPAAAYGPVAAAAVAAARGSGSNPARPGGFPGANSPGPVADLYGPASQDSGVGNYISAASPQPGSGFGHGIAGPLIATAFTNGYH

As to “5′-AAAAGAUUUAUUUAUU-3′-fluorescein (3'-fluorescein, further chemistry not given here) [Bcl-2 RNA, Fluorescein labeled 16 nt RNA purchased from Dharmacon]”, binding in series [1] was characterised by a dissociation constant (Kd) of 0.0063 µM.

Turning to `CC(C)(C)c1ccc(C(=O)Nc2ccc3sc(/C=C/C(=O)O)cc3c2)cc1` [KH-19A, (E)-3-(5-(4-(tert-butyl)benzamido)benzo[b]thiophen-2-yl)acrylic acid], the Ki in series [2] is 0.97 µM; at Msi1, 2.24 µM; on Musashi 2 (Msi2) (setting [10]) it was 0.28 µM; in [5] it was more than 20 µM. Further, the IC50 is 56 µM in [3]; 72.1 µM in series [4]; more than 100 µM in series [6]; 80.6 µM in series [7]; 78.5 µM in series [8]; more than 100 µM in series [9].

Turning to `CC(C)(C)C(=O)Nc1ccc2sc(/C=C/C(=O)NO)cc2c1` [KH-20, (E)-N-hydroxy-3-(5-pivalamidobenzo[b]thiophen-2-yl)acrylamide], the Ki (in series [2]; at Msi1; on Musashi 2 (Msi2) (setting [11]); in series [5]) was more than 20 µM each time. The same compound gave an IC50 in [3] of 3.98 µM.

For `CC(C)(C)C(=O)Nc1ccc2sc(/C=C/C(=O)O)cc2c1` [KH-20A, (E)-3-(5-pivalamidobenzo[b]thiophen-2-yl)acrylic acid], the Ki (in [2]; at Msi1; on Musashi 2 (Msi2) (setting [11]); in [5]) was more than 20 µM each time. The compound also displayed an IC50 in series [3] of more than 100 µM.

Consider `CC(C)(C)c1cccc(C(=O)Nc2ccc3sc(/C=C/C(=O)O)cc3c2)c1` [KH-31A, (E)-3-(5-(3-(tert-Butyl)benzamido)benzo[b]thiophen-2-yl)acrylic acid], for which the Ki in series [2] was 2.27 µM; on Msi1, 4.6 µM; on Musashi 2 (Msi2) (setting [10]), 1.36 µM; in series [5] it was more than 20 µM. Further, the IC50 in series [4] was determined as 95.3 µM.

On to `O=C(O)/C=C/c1cc2cc(NC(=O)c3ccc(C(F)(F)F)cc3)ccc2s1` [KH-32A, (E)-3-(5-(4-(Trifluoromethyl)benzamido)benzo[b]thiophen-2-yl)acrylic acid], for which the Ki in series [2] is 1.6 µM; at Msi1, 4.36 µM; at Musashi 2 (Msi2) (setting [10]), 1.68 µM; in series [5], more than 20 µM. In series [4], the IC50 was more than 100 µM.

`O=C(/C=C/c1cc2cc(NC(=O)c3ccc(C(F)(F)F)cc3)ccc2s1)NO` [KH-32]: the Ki in series [2] is 0.51 µM; at Msi1, 4.87 µM; at Musashi 2 (Msi2) (setting [10]), 2.64 µM; in [5], more than 20 µM. Moreover, inhibition in series [4] was half-maximal at 2.62 µM (IC50).

For the compound `O=C(O)/C=C/c1cc2cc(NC(=O)c3ccc(S(F)(F)(F)(F)F)cc3)ccc2s1` [KH-33A, (E)-3-(5-(4-(pentafluoro-λ^6-sulfanyl)benzamido)benzo[b]thiophen-2-yl)acrylic acid], the Ki in series [2] is 1.2 µM; at Msi1 it was 2.63 µM; on Musashi 2 (Msi2) (setting [10]), 1.03 µM; in [5], more than 20 µM. This compound also had an IC50 in [4] of 50.1 µM.

`O=C(CCc1cc2cc(NC(=O)c3ccc(S(F)(F)(F)(F)F)cc3)ccc2s1)NO` [KH-34, N-(2-(3-(Hydroxyamino)-3-oxopropyl)benzo[b]thiophen-5-yl)-4-(pentafluoro-X^6-sulfanyl)benzamide]: the Ki is 1.53 µM in series [2], more than 20 µM on Msi1, more than 20 µM at Musashi 2 (Msi2) (setting [11]) and more than 20 µM in [5]. The compound further gave an IC50 in series [4] of 3.97 µM.

As to `O=C(O)CCc1cc2cc(NC(=O)c3ccc(S(F)(F)(F)(F)F)cc3)ccc2s1` [KH-34A, 3-(5-(4-(pentafluoro-λ^6-sulfanyl)benzamido)benzo[b]thiophen-2-yl)propanoic acid], the Ki in series [2] is 5.8 µM; at Msi1, more than 20 µM; on Musashi 2 (Msi2) (setting [11]), more than 20 µM; in series [5], more than 20 µM. The IC50 in [4] came to 48 µM.

As to `CN(C)c1ccc(C(=O)Nc2ccc3sc(/C=C/C(=O)NO)cc3c2)cc1` [KH-36, (E)-4-(dimethylamino)-N-(2-(3-(hydroxyamino)-3-oxoprop-1-en-1-yl)benzo[b]thiophen-5-yl)benzamide], the Ki amounted to 0.55 µM in series [2], 1.5 µM on Musashi 2 (Msi2) (setting [10]) and 7.1 µM in series [5]. Besides, the IC50 in series [4] was 4.02 µM; in series [6], 5.05 µM; in series [7], 4 µM; in [8], 5.74 µM; in [9], 4.89 µM.

In the case of `CN(C)c1ccc(C(=O)Nc2ccc3sc(/C=C/C(=O)O)cc3c2)cc1` [KH-36A, (E)-3-(5-(4-(Dimethylamino)benzamido)benzo[b]thiophen-2-yl)acrylic acid], the Ki in [2] was determined as 0.12 µM; on Msi1 it was 0.22 µM; at Musashi 2 (Msi2) (setting [10]), 0.5 µM; in series [5], 1.64 µM. For the same compound, the IC50 is more than 100 µM in series [4]; 98.5 µM in series [6]; 99.9 µM in series [7]; 62.9 µM in [8]; more than 100 µM in [9].

As to `CC(C)c1ccc(C(=O)Nc2ccc3sc(CCC(=O)O)cc3c2)cc1` [KH-37A, 3-(5-(4-Isopropylbenzamido)benzo[b]thiophen-2-yl)propanoic acid], the Ki (in series [2]; on Msi1; at Musashi 2 (Msi2) (setting [11]); in [5]) was more than 20 µM each time. In series [4], this compound yielded an IC50 of more than 100 µM.

Turning to `CC(C)c1ccc(C(=O)Nc2ccc3sc(CCC(=O)NN)cc3c2)cc1` [KH-37E], the Ki in [2] was 5.18 µM; on Msi1 it was more than 20 µM; on Musashi 2 (Msi2) (setting [11]), more than 20 µM; in [5] it was more than 20 µM. The compound further gave an IC50 in [4] of more than 100 µM.

In the case of `CN(C)c1ccc(C(=O)Nc2ccc3sc(CCC(=O)O)cc3c2)cc1` [KH-38A, 3-(5-(4-(Dimethylamino)benzamido)benzo[b]thiophen-2-yl)propanoic acid], the Ki (in [2]; on Msi1; on Musashi 2 (Msi2) (setting [11]); in series [5]) was more than 20 µM throughout. In [4], this compound yielded an IC50 of more than 100 µM.

In the case of `CN(C)c1ccc(C(=O)Nc2ccc3sc(CCC(=O)NN)cc3c2)cc1` [KH-38E], the Ki in series [2] is 3.56 µM; at Msi1 it was more than 20 µM; on Musashi 2 (Msi2) (setting [11]), more than 20 µM; in series [5], more than 20 µM. The compound also displayed an IC50 in series [4] of 57.6 µM.

As to `CN(C)c1ccc(C(=O)Nc2ccc3sc(CCC(=O)NO)cc3c2)cc1` [KH-38], the Ki in series [2] was 2.88 µM; on Msi1, more than 20 µM; on Musashi 2 (Msi2) (setting [11]), more than 20 µM; in [5] it was more than 20 µM. In addition, the IC50 in series [4] is 25.9 µM.

For the compound `CC(C)(C)c1ccc(C(=O)Nc2ccc3[nH]c(C(=O)O)cc3c2)cc1` [KH-39A, 5-(4-(tert-butyl)benzamido)-1H-indole-2-carboxylic acid], the Ki in series [2] is 12.5 µM; at Msi1, more than 20 µM; on Musashi 2 (Msi2) (setting [10]), 22 µM; in series [5] it was more than 20 µM. In series [4], this compound registered an IC50 of more than 100 µM.

The Kd is the free concentration of one partner at which half of the binding sites on the other are occupied at equilibrium, for simple one-to-one binding. Lower therefore signals a tighter complex. The Ki is a measure of affinity in units of concentration, obtained from inhibition or displacement. In general, IC50 refers to the concentration at which inhibition is half-maximal.
